Results published in patent US9375497B2, “[F-18]-labeled L-glutamic acid, [F-18]-labeled L-glutamine, derivatives thereof and use thereof and processes for their preparation” (BAYER SCHERING PHARMA AKTIENGESELLSCHAFT, priority 2006, dated 2016).

Columns and labels:
[1] = test system: A549 (non-small-cell bronchial carcinoma) cells; test: Tumor cell uptake in A549 cells; format: cell-based, human; details: 250 kBq/well, compared to [^18F]FDG
Protocol: (§1) For the evaluation of the tumor cell uptake of [^18F]glutamic acid, cell uptake experiments were carried out in human A549 (non-small-cell bronchial carcinoma) and HT29 (colonic carcinoma) cells. The tumor cell uptake of the glutamic acid derivatives was compared to
(§2) [^18F]FDG (gold standard for oncological PET investigations).
FIG. 2: Comparison of the time-dependent tumor cell uptake of [^18F]-4-glutamic acid [20-35 μM] (on the left) and [F-18]FDG [2 μM] (on the right) in A549 cells. The cells were incubated with 250 kBq/well. For displacement experiments, L-glutamic acid (1 mM) or glucose (5 mM) was used (mean value±standard deviation, n=3).

[2] = test system: HT29 (colonic carcinoma) cells; test: Tumor cell uptake in HT29 cells; format: cell-based, human; details: compared to [^18F]FDG
Protocol: as §1, §2

[3] = test system: murine F9 teratocarcinoma model in NMRI nude mice; test: Tumor enrichment and tissue distribution, F9 teratocarcinoma model; details: for Tumor/tissue quotient, Liver: single i.v.
Protocol: (§3) For the evaluation of the tumor enrichment and the tissue distribution in experimental animals, [^18F]-4-glutamic acid was tested in a murine F9 teratocarcinoma model in NMRI nude mice and a murine B16F1 melanoma model in C57BI6 mice.
For this, 1×10^6 cells (F9) or 5×10^5 cells (B16F1) respectively were suspended in 100 μl of phosphate-buffered physiological saline solution and inoculated subcutaneously into the right, rear flank of the corresponding experimental animal species (NMRI for F9 and 057-BI6 for B16F1) (Berndorff et al. Clin. Cancer Res. 2005, 11, 2005). […] [^18F]-4-Glutamic acid (370 kBq, in 100 μl of physiological saline solution) was administered intravenously to the tail vein. […]

[4] = test system: murine B16F1 melanoma model in C57BI6 mice; test: Tumor enrichment and tissue distribution, B16F1 melanoma model; details: for Tumor/tissue quotient, Ovary: single i.v.; for Tissue uptake, Brain: single i.v. 111 kBq
Protocol: as §3
For this, 1×10^6 cells (F9) or 5×10^5 cells (B16F1) respectively were suspended in 100 μl of phosphate-buffered physiological saline solution and inoculated subcutaneously into the right, rear flank of the corresponding experimental animal species (NMRI for F9 and 057-BI6 for B16F1) (Berndorff et al. Clin. Cancer Res. 2005, 11, 2005). […] [^18F]-4-Glutamic acid (370 kBq, in 100 μl of physiological saline solution) was administered intravenously to the tail vein. After 15; 60 and 120 min in each case, the animals were killed, organ and tumor removed, weighed and measured for radioactive content.

## NC(CC(OCC[18F])C(=O)O)C(=O)O (centres unmarked) [2-amino-4-(2-[F-18]fluoroethoxy)pentanedicarboxylic acid]
[1]
  tumor cell uptake: Analogous uptake results
[2]
  tumor cell uptake: Analogous uptake results

## NC(CC(CCC[18F])C(=O)O)C(=O)O (centres unmarked) [2-amino-4-(3-[F-18]fluoropropyl)pentanedicarboxylic acid]
[1]
  tumor cell uptake: Analogous uptake results
[2]
  tumor cell uptake: Analogous uptake results

## N[C@@H](CC[14C](=O)O)C(=O)O [[^14C]5-glutamic acid, reference compound]
[3]; 1.0 h (times as Table 5)
  Tumor/tissue quotient, Liver: 1.31
[3]; 4.0 h (times as Table 5)
  Tumor/tissue quotient, Liver: 1.09
[3]; F9 teratocarcinoma, 1 h after intravenous administration
  tumor enrichment: 0.98 % ID/g
[3]; F9 teratocarcinoma, similarly early time (30 min)
  maximal tumor enrichment: 0.81 % ID/g
[4]; 0.25 h (times as Table 7)
  Tumor/tissue quotient, Ovary: 0.47
[4]; 0.25 h
  Tissue uptake, Brain: 0.22 % dose/g
[4]; 1.0 h (times as Table 7)
  Tumor/tissue quotient, Ovary: 1.01
[4]; 1.0 h
  Tissue uptake, Brain: 0.13 % dose/g
[4]; 2.0 h
  Tissue uptake, Brain: 0.09 % dose/g
[4]; B16F1 melanoma, 1 h after intravenous administration
  tumor enrichment: 1.03 % ID/g
[4]; B16F1 melanoma, "at the same time"
  maximal tumor enrichment: 1.23

## NC(=O)C([18F])CC(N)C(=O)O (centres unmarked) [[^18F]-4-glutamine, 2-amino-4-[F-18]fluoroglutamine]
[1]
  tumor cell uptake: Analogous uptake results
[2]
  tumor cell uptake: Analogous uptake results
